Molecules are shown by their SMILES. The source made the active and inactive calls.

In general, EC50 refers to the midpoint of the concentration-response curve. The term CC50 denotes the concentration giving 50% cytotoxicity. By AC50 is commonly meant the midpoint of the concentration-response curve, whichever way the signal moves.

The nature of assay [1]: NIH-3T3 fibroblast cytotoxicity, dose response, cytotoxicity control, cell-based, fluorescence, Alamar Blue, secondary assay (AID 2327).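 Note: NIH-3T3 mouse fibroblasts cultured with fluconazole at 8 µg/mL.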 The format is functional.
Assay [2] can be described thus: C. albicans growth with fluconazole, confirmation, fluorescence, retest (AID 2467). The format is functional, cell-based.
For assay [3], the target named is Induced myeloid leukemia cell differentiation protein Mcl-1 (Homo sapiens, UniProt Q07820). The format is functional.
Induced myeloid leukemia cell differentiation protein Mcl-1, sequence (Q07820 whole entry): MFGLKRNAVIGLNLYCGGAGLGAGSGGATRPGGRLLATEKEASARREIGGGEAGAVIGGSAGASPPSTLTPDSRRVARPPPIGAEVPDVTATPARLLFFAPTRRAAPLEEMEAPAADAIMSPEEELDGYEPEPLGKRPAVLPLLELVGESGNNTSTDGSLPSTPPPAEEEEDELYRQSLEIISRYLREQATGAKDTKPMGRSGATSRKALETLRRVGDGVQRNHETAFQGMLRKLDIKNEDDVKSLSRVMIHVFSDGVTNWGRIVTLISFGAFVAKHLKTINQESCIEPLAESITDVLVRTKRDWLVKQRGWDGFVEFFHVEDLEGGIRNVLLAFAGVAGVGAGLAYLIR
A further assay concerns the target Nonstructural protein 1 (Influenza A virus, UniProt Q194T2). The format is functional, Influenza A virus (A/California/07/2009(H1N1)).
The subject of assay [4] is Vero. The experiment in a line: Vero cell cytotoxicity, cytotoxicity control for flavivirus capping enzyme inhibitors (AID 588742). The format is functional. The following applies: Chlorocebus sabaeus.
The next assay has as its target Genome polyprotein (dengue virus type 2, UniProt P29990). The experiment in a line: Dengue-2 NS5 methyltransferase inhibitors, primary screen, biochemical, confirmation dose response (AID 588689). The format is functional.
The target of the next assay is Albumin (Bos taurus, UniProt P02769). The assay can be described thus: Counterscreen for inhibitors of T-cell receptor (TCR)-CD3 interaction: Fluorescence-based biochemical high throughput dose response assay to identify inhibitors of T-cell receptor (TCR)-CD3 interaction using a TAMRA-labeled BSA probe. The format is functional. Background: A counterscreen serves to expose hits that act by an unwanted route or on another target.
Albumin, sequence (P02769 whole entry): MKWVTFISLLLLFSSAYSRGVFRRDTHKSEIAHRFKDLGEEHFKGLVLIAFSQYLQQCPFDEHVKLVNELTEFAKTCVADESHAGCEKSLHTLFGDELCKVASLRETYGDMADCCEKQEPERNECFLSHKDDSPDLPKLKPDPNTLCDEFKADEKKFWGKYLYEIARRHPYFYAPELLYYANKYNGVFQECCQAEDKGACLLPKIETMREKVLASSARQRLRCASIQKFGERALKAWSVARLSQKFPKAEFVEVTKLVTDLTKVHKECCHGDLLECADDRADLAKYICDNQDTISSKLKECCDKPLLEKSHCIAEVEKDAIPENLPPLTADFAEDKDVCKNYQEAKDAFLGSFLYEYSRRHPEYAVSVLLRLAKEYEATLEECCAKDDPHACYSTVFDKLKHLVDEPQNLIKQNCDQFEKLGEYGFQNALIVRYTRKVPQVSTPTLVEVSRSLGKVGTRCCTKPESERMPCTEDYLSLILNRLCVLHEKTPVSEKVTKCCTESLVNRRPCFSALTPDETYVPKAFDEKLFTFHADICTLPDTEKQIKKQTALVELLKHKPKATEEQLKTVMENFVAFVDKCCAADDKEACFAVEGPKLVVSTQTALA

In assay [5] the test system is Vero. The experiment in a line: host cell cytotoxicity of antiviral hits, dose response, cytotoxicity control for West Nile virus antiviral project, secondary assay (AID 1650). Conditions: Chlorocebus sabaeus. The format is functional.
Assay [6] can be described thus: cells. The format is functional, cell-based.
The nature of assay [7]: inhibitors of intracellular T. cruzi replication, confirmation, NIH3T3 host cells, beta-gal luminescence (AID 2044).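 Note: intracellular parasites grown in NIH/3T3 mouse fibroblasts as host cells; luminescent beta-galactosidase reporter signal from transgenic T. cruzi replicating inside host cells; inhibitors lower the luminescence signal.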 The format is functional, cell-based.
Assay [8] can be described thus: cells. The format is functional, cell-based. The source holds these as a separate data set.
A short description of assay [9]: cytotoxicity toward NIH3T3 fibroblasts, dose response, counter-screen, cell-based, ATP luminescence, mouse fibroblasts (AID 2010).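 Note: cells exposed to compound for about 90 hours before reading.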 The format is functional.
The subject of a further assay is INS1. The assay can be described thus: beta cell apoptosis inhibitors, cytokine rescue, dose response, luminescence, retest (AID 449756).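 Note: cell death triggered by IL-1 beta plus TNF-alpha plus IFN-gamma mixture; protective hits raise ATP signal compared with cytokine alone wells.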 Conditions: Rattus norvegicus. The format is functional, cell-based.
For a further assay, the system named is H9c2. The assay can be described thus: cells. The format is functional, cell-based. Conditions: Rattus norvegicus, H9c2, Myocardium.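 Note: confirmatory concentration-response retest of ultra-high-throughput screening hits for modulation of myocardial damage; cell death induced by hydrogen peroxide oxidative stress; compound pretreatment for 60 min then peroxide exposure for 2 h; potency is for protecting the cells against peroxide damage rather than for killing them.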
Assay [10] relates to Streptococcus sp. 'group A'. The assay can be described thus: growth inhibition of control SK(-) GAS strain, dose response, counter-screen for streptokinase expression inhibitor project, luminescence, kanamycin, BacTiterGlo, confirmation (AID 1900). The format is functional, organism-based.
A further assay has as its target T1, Streptokinase A (Streptococcus pyogenes serotype M1, UniProt P10520).
T1 sequence (P10520 whole entry): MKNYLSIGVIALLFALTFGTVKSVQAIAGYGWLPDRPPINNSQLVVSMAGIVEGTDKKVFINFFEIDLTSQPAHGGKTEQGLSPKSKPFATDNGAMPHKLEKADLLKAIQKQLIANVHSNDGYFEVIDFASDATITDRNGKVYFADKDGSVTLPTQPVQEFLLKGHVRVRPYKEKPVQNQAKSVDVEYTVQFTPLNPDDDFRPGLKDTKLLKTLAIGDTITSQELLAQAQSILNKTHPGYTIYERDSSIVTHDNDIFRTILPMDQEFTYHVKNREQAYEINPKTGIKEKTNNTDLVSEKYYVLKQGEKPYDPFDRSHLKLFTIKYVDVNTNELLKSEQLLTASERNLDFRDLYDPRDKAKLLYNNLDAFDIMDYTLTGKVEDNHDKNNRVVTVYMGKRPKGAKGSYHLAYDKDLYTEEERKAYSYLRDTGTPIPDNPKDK
The experiment in a line: S. pyogenes streptokinase expression inhibitors, potency, dose response, plasminogen activation absorbance, OD405 (AID 1914).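 Note: secreted streptokinase activity via plasminogen activation per viability signal from cell pellet.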 The format is functional, Streptococcus pyogenes M1 GAS.

A further assay deals with Streptococcus. The experiment in a line: Group A Streptococcus viability loss, dose response, counter-screen for streptokinase expression inhibitor project, luminescence, BacTiterGlo (AID 1915).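 Note: potency for reduction of bacterial viability or growth.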 The format is functional, organism-based.
The test system of assay [11] is BJ. The assay can be described thus: cytotoxicity toward BJ-TERT fibroblasts, dose response, cell-based, RAS-independent, luminescence (AID 1933). The format is functional. The following applies: Homo sapiens.
For assay [12], the system named is BJ. The assay can be described thus: cells. The following applies: Homo sapiens. The format is functional, cell-based.
In assay [13] the test system is BJ. The assay can be described thus: cytotoxicity toward BJ-TERT-LT-ST fibroblasts, dose response, cell-based, RAS-independent, luminescence (AID 1935).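 Note: BJ fibroblasts immortalized with TERT plus LT and ST oncogenes.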 The following applies: Homo sapiens. The format is functional.
Assay [14] in a line: cytotoxicity toward DRD oncogenic fibroblasts, dose response, cell-based, non-viral oncogenic, luminescence (AID 1934). The format is functional. The following applies: Homo sapiens.
Assay [15] concerns Vero. The experiment in a line: cells. Conditions: Chlorocebus sabaeus. The format is functional, cell-based.
Assay [16] has as its system Vero. The assay can be described thus: cells. The format is functional. The following applies: Chlorocebus sabaeus.
Assay [17] has as its target T2, Carboxy-terminal domain RNA polymerase II polypeptide A small phosphatase 1 (Homo sapiens, UniProt Q9GZU7).
T2 sequence (Q9GZU7 whole entry): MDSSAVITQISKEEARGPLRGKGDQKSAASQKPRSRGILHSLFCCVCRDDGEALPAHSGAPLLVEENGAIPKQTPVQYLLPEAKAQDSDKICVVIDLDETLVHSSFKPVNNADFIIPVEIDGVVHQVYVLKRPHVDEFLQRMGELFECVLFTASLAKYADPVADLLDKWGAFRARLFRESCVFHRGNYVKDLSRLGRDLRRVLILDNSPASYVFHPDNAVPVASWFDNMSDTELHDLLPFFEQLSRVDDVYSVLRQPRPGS
The experiment in a line: inhibitors of CTDSP1, concentration-response testing, biochemical assay, absorbance-based, actives from ultra-high-throughput screening (AID 540297). The format is functional.

Assay [18] concerns the target T3, Tyrosine-protein phosphatase non-receptor type 11 (Homo sapiens, UniProt Q06124).
T3 sequence (Q06124 whole entry): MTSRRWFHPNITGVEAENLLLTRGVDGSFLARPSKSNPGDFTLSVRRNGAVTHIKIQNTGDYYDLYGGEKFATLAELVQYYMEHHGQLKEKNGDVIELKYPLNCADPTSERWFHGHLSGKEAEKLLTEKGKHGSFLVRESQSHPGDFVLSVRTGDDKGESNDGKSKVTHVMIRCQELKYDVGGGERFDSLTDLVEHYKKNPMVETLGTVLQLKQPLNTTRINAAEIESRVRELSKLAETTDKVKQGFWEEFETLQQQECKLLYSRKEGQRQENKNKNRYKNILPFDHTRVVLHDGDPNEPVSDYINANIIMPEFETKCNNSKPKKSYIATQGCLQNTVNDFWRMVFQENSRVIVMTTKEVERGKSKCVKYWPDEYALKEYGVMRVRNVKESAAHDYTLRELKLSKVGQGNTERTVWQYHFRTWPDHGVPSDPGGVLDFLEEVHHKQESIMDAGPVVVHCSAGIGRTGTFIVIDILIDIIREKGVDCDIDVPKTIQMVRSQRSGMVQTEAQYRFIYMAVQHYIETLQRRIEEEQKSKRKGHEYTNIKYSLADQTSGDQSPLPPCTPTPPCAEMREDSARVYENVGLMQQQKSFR
The assay can be described thus: SHP2 phosphatase inhibition, dose response, selectivity assay for STEP inhibitor project, biochemical (AID 602367). The following applies: read-out: IC50_Mean. The format is functional.

Assay [19] deals with T4, Tyrosine-protein phosphatase non-receptor type 5 (Homo sapiens, UniProt P54829).
T4 sequence (P54829 whole entry): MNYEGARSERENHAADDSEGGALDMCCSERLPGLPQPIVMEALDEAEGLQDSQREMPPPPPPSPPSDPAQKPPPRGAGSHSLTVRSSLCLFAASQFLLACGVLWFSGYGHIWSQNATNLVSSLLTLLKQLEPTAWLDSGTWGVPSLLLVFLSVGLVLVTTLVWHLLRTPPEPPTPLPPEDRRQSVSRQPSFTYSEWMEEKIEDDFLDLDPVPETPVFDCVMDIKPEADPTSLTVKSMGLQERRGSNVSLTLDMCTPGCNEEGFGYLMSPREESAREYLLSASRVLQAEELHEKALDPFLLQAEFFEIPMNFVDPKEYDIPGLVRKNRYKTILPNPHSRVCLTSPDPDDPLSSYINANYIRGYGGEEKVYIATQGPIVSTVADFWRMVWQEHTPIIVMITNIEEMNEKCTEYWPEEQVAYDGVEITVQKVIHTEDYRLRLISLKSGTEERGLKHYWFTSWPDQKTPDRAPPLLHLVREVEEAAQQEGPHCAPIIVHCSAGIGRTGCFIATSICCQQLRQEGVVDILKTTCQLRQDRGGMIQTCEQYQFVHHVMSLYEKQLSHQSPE
The assay can be described thus: STEP phosphatase inhibitors, confirmation, biochemical, fluorescence intensity, uHTS hits (AID 602372). The format is functional. Conditions: read-out: IC50_Mean.

Assay [20] addresses Dual specificity protein phosphatase 3 (Homo sapiens, UniProt P51452). The assay can be described thus: VHR phosphatase inhibition, dose response, selectivity assay for STEP inhibitor project, biochemical (AID 602374). The format is functional. Conditions: read-out: IC50_Mean.

Dual specificity protein phosphatase 3, sequence (P51452 whole entry): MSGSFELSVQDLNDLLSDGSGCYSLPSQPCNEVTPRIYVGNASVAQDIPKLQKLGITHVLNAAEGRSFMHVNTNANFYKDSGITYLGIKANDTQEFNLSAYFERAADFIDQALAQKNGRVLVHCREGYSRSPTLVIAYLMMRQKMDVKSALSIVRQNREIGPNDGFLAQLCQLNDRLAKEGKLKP
Nonstructural protein 1, sequence (Q194T2 whole entry): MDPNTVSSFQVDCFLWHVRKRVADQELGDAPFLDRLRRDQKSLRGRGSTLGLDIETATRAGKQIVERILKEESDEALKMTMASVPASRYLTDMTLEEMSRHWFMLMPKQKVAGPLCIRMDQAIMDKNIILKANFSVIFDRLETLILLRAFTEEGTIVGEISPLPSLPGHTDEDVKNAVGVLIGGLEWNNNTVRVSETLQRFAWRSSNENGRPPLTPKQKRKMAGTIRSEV
Genome polyprotein, sequence (P29990 2492-3391 limits assumed): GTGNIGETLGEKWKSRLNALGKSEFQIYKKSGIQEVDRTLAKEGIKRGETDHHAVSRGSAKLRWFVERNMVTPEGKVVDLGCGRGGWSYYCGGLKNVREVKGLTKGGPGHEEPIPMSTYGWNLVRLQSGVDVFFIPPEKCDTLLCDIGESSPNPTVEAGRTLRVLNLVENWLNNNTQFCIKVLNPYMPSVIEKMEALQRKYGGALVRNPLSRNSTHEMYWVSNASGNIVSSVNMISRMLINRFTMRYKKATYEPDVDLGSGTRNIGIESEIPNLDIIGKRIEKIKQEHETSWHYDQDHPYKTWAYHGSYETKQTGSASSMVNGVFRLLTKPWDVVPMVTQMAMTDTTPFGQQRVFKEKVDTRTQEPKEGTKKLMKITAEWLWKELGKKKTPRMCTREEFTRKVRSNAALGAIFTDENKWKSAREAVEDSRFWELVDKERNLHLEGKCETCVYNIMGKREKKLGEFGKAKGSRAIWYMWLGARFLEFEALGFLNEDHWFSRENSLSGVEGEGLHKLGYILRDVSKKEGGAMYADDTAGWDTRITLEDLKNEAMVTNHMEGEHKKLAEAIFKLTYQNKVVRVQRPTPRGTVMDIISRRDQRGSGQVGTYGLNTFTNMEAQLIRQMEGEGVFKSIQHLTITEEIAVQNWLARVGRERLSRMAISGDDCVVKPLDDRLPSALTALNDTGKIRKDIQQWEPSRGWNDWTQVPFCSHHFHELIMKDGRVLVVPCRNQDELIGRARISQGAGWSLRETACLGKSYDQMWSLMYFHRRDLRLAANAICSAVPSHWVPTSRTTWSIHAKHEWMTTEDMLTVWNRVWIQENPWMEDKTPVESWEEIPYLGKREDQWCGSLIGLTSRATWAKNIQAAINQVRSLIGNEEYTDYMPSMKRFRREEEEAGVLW

With `O=[N+]([O-])c1cc(Cl)cc(/C=N/NC(=S)Nc2ccc(S(=O)(=O)N3CCOCC3)cc2)c1O`, the figures for the EC50 in assay [1] and in [2] were > 160 µM (inactive) and > 38 µM (not active), respectively. Besides, the IC50 was 3.47 µM (active) in assay [3], 3.52 µM (active) at Nonstructural protein 1, > 100 µM (active) on Genome polyprotein and > 94.1 µM (inactive) at Albumin. In the assay on Vero [4], the CC50 was 38.3 µM (active).
`Cc1ccc(CS/C(Nc2ccccc2C)=C(\C#N)C(=O)NCc2ccco2)c(C)c1`: in the assay with Vero [5], the CC50 was 15.2 µM (active).
Turning to `COc1ccc(C)cc1NC(=O)NNC(=O)c1cc2ccccc2cc1O`, the EC50 in [1] was 22.7 µM (inconclusive); in [2], > 38 µM (not active). Besides, at Albumin, the IC50 is > 94.1 µM (inactive).
Take `Cn1c(N=NO)nc2ccccc21`: the EC50 in assay [1] is > 150 µM (inactive); in “cells [6]” it was 11.3 µM (active); in assay [7], 0.778 µM (active); in “cells [8]”, > 350 µM (not active); in [9], < 6 µM (inconclusive). For the same molecule, the concentration at half-maximal activity (AC50) in the assay on INS1 was 0.932 µM (active).
For `O=C(CSc1nnc(-c2ccccc2)n1Cc1ccccc1)NNC(=O)c1ccccc1O`, the figures for the IC50 with H9c2 and at Albumin were 33.7 µM (inactive) and > 94.1 µM (inactive), respectively.
`O=C(NC(=S)NNC(=O)c1cccs1)c1ccccc1`: the figures for the EC50 (in assay [10]; on Streptokinase A; with Streptococcus) were 3.79 µM (active), > 150 µM (not active) and 21.2 µM (active), respectively. Moreover, the IC50 on Albumin was > 94.1 µM (inactive).
In the case of `Cc1c(/C=N/NC(N)=O)c2ccccn2c1C(=O)c1ccncc1`, the EC50 in “cells [6]” and in “cells [8]” was > 350 µM (not active) each time.
As for `CCc1cc(C(=O)N2CCc3c([nH]c4ccccc34)C2c2ccc(OC)cc2F)no1` (stereo unspecified), the EC50 is 28.3 µM (active) with BJ [11], > 150 µM (not active) in the assay with BJ [12], > 150 µM (not active) in the assay on BJ [13] and > 150 µM (inconclusive) in assay [14]. Also, the 50% cytotoxic concentration (CC50) with Vero [5] is 24.4 µM (active); in the assay with Vero [16] it was 20 µM (active). The IC50 with Vero [15] is 1.74 µM (active).
In the case of `CCOc1ccc(/C=N/NC(=O)c2cc3c(OC)cccc3[nH]2)cc1`, the IC50 in [17] was 3.08 µM (active); in assay [18], 1.65 µM (active); in assay [19], 13.2 µM (active); in assay [20], 1.85 µM (active).

Values taken from ChEMBL document CHEMBL1201862, “PubChem BioAssay data set” (2004).
